Where “and” joins values, the source holds several entries; their conditions need not be identical. Equal entries are not always repeated. Where two headings read alike, the source gives them in different places.

Holding throughout (type): biochemical
In one test the target is hCA IX (Homo sapiens, UniProt Q16790). Kind of test: CA inhibition, stopped-flow CO2 hydrase assay, hCA IX. How it is done: (§1) An Applied Photophysics stopped-flow instrument has been used for assaying the CA-catalyzed CO2 hydration activity. […] The initial rates of the CA-catalysed CO2 hydration reaction were followed for a period of 10−100 s. The CO2 concentrations ranged from 1.7 to 17 mM for the determination of the kinetic parameters and inhibition constants. […] The uncatalyzed rates were determined in the same manner and subtracted from the total observed ones. Stock solutions of each inhibitor (0.1 mM) were prepared in distilled − deionized water and dilutions up to 0.01 nM were done thereafter with distilled − deionized water. Inhibitor and enzyme solutions were preincubated together for 15 min at room temperature prior to assay to allow for the formation of the E−I complex. The inhibition constants were obtained by nonlinear least-squares methods using the Cheng-Prusoff equation and represent the mean from at least three different determinations. […] Human CA isoforms were recombinant enzymes obtained in-house as reported earlier.

The next test addresses hCA I (Homo sapiens, UniProt P00915). The test can be described thus: CA inhibition, stopped-flow CO2 hydrase assay, hCA I. Here is the method:
as §1

A further test addresses hCA XII (Homo sapiens, UniProt O43570). The test can be described thus: CA inhibition, stopped-flow CO2 hydrase assay, hCA XII. How it is done:
as §1

A further test has as its target hCA II (Homo sapiens, UniProt P00918). The test can be described thus: CA inhibition, stopped-flow CO2 hydrase assay, hCA II. Here is the method:
as §1

Setting [1] is: Table 2, acesulfame-based derivatives, mean from 3 different assays, errors ± 5–10%.
Setting [2] is: Table 1, saccharin-based derivatives, recombinant enzyme, 15 min preincubation, pH 7.5.

Chain of hCA XII (O43570 25-354): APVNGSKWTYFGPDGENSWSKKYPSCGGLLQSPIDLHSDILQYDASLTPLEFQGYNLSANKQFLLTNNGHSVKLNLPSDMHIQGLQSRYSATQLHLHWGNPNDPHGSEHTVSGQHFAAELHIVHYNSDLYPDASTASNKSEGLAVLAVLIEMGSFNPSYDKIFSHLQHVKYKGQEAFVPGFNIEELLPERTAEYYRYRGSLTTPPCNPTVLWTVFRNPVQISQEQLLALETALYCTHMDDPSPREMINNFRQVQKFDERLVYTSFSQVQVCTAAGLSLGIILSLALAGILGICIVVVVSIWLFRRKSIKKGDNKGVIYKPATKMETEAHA
Chain of hCA I (P00915 whole entry): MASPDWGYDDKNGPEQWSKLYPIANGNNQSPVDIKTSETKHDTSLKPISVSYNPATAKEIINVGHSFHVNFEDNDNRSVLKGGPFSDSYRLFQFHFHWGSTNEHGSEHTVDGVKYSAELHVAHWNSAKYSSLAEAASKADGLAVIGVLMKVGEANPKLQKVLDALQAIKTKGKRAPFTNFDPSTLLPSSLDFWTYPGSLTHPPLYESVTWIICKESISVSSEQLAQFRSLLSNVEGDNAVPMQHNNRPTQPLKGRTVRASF

Broadly, the Ki is a measure of affinity in units of concentration, obtained from inhibition or displacement. `CC1=CC(OCc2cn(Cc3ccccc3)nn2)=NS(=O)(=O)O1` [Compound 60]: the Ki was 1.1 µM at hCA IX (setting [1]), above 100 µM at hCA I (setting [1]), above 100 µM at hCA XII (setting [1]) and above 100 µM at hCA II (setting [1]).
As for `O=C1c2ccccc2S(=O)(=O)N1Cc1cccc(Cl)c1` [Compound 3], the Ki on hCA IX was 0.3 µM; on hCA IX (setting [2]), 0.1 µM; on hCA I (setting [2]) it was above 1000 µM; on hCA XII, 1.3 µM; on hCA II (setting [2]), above 1000 µM. Besides, the “inhibitory activity against hCA I, in words” value against hCA I is listed as “ineffective”. Also, the “inhibitory activity against hCA II, in words” value at hCA II is “ineffective”.
Consider `O=C1c2ccccc2S(=O)(=O)N1c1cccc([N+](=O)[O-])c1` [Compound 35], for which the Ki on hCA IX (setting [2]), at hCA I (setting [2]), at hCA XII (setting [2]) and at hCA II (setting [2]) was above 1000 µM each time.
As for `O=C1c2ccccc2S(=O)(=O)N1Cc1ccccc1Cl` [Compound 2], the Ki at hCA IX (setting [2]) is 0.3 µM; at hCA I (setting [2]), above 1000 µM; at hCA XII, 0.22 µM; at hCA II (setting [2]) it was above 1000 µM. Moreover, on hCA I, the “inhibitory activity against hCA I, in words” value is listed as “ineffective”. Moreover, at hCA II, the “inhibitory activity against hCA II, in words” value is given as “ineffective”.
As to `O=C1c2ccccc2S(=O)(=O)N1Cc1cn(Cc2ccccc2)nn1` [Compound 46], the Ki at hCA IX was 20.9 µM and 7.4 µM; on hCA IX (setting [2]), 20.9 µM; on hCA I (setting [2]), above 100 µM; at hCA XII, 7.4 µM; at hCA II (setting [2]) it was above 100 µM.
As to `CC(C)=CCN1C(=O)c2ccccc2S1(=O)=O` [Compound 1], the Ki is 0.39 µM at hCA IX; 0.39 µM at hCA IX (setting [2]); above 1000 µM at hCA I; above 1000 µM at hCA I (setting [2]); 0.23 µM at hCA XII; above 1000 µM at hCA II. In addition, the Ki at hCA II (setting [2]) was above 1000 µM.
Turning to `COC(=O)c1ccccc1S(=O)(=O)Nc1ccc(C)cc1` [Compound 13], the Ki was 68.2 µM at hCA IX (setting [2]), above 1000 µM on hCA I (setting [2]), above 1000 µM on hCA XII (setting [2]) and above 1000 µM on hCA II (setting [2]).
Consider `O=C1c2ccccc2S(=O)(=O)N1c1ccc([N+](=O)[O-])cc1` [Compound 36], for which the Ki was 443 µM at hCA IX; 444 µM at hCA IX (setting [2]); above 1000 µM on hCA I (setting [2]); above 1000 µM on hCA XII (setting [2]); above 1000 µM at hCA II (setting [2]).
For `COc1ccc(N2C(=O)c3ccccc3S2(=O)=O)cc1` [Compound 40], the Ki on hCA IX (setting [2]), at hCA I (setting [2]), on hCA XII (setting [2]) and on hCA II (setting [2]) was above 1000 µM in each case.
As for `O=C(O)c1ccccc1S(=O)(=O)Nc1ccccc1` [Compound 17], the Ki was 46.5 µM on hCA IX (setting [2]), above 1000 µM on hCA I (setting [2]), above 1000 µM on hCA XII (setting [2]) and above 1000 µM at hCA II (setting [2]).
As to `CC1=CC(=O)N(Cc2ccccc2)S(=O)(=O)O1` [Compound 51], the Ki was 2.7 µM on hCA IX (setting [1]), above 1000 µM on hCA I (setting [1]), 0.27 µM on hCA XII (setting [1]) and above 1000 µM at hCA II (setting [1]).
On to `O=C(O)c1ccccc1S(=O)(=O)Nc1cccc([N+](=O)[O-])c1` [Compound 23], for which the Ki on hCA IX (setting [2]), on hCA I (setting [2]), on hCA XII (setting [2]) and at hCA II (setting [2]) was above 1000 µM each time.
In the case of `CC(C)c1ccc(N2C(=O)c3ccccc3S2(=O)=O)cc1` [Compound 39], the Ki on hCA IX (setting [2]), at hCA I (setting [2]), at hCA XII (setting [2]) and on hCA II (setting [2]) was above 1000 µM each time.
With `CC1=CC(=O)N(Cc2ccc(Cl)c(Cl)c2)S(=O)(=O)O1` [Compound 52], the Ki is 0.47 µM on hCA IX (setting [1]), above 1000 µM at hCA I (setting [1]), 2 µM at hCA XII (setting [1]) and above 1000 µM on hCA II (setting [1]).
For `O=C1c2ccccc2S(=O)(=O)N1c1ccccc1` [Compound 29], the Ki on hCA IX (setting [2]), at hCA I (setting [2]), on hCA XII (setting [2]) and on hCA II (setting [2]) was above 1000 µM each time.
Regarding `O=C1c2ccccc2S(=O)(=O)N1Cc1cn(-c2ccc(Br)cc2)nn1` [Compound 43], the Ki on hCA IX (setting [2]) is 538 µM; at hCA I (setting [2]) it was above 1000 µM; at hCA XII (setting [2]), above 1000 µM; on hCA II (setting [2]) it was 76.4 µM.
For the molecule `CC1=CC(OCc2cn(-c3ccc(Br)cc3)nn2)=NS(=O)(=O)O1` [Compound 58], the Ki on hCA IX (setting [1]), at hCA I (setting [1]), on hCA XII (setting [1]) and on hCA II (setting [1]) was above 1000 µM in each case.
For the molecule `COC(=O)c1ccccc1S(=O)(=O)Nc1ccccc1` [Compound 5], the Ki on hCA IX (setting [2]) is 59.6 µM; on hCA I (setting [2]) it was above 1000 µM; at hCA XII (setting [2]), above 1000 µM; at hCA II (setting [2]), above 1000 µM.
As for `Cc1cccc(C)c1N1C(=O)c2ccccc2S1(=O)=O` [Compound 38], the Ki on hCA IX (setting [2]), at hCA I (setting [2]), at hCA XII (setting [2]) and on hCA II (setting [2]) was above 1000 µM each time.
Take `COC(=O)c1ccccc1S(=O)(=O)Nc1ccc(Br)cc1` [Compound 9]: the Ki is 6.7 µM on hCA IX (setting [2]), above 1000 µM at hCA I (setting [2]), above 1000 µM at hCA XII (setting [2]) and 689 µM at hCA II (setting [2]).
Take `CC1=CC(=O)N(Cc2cn(-c3ccc(Cl)cc3)nn2)S(=O)(=O)O1` [Compound 54]: the Ki on hCA IX (setting [1]), on hCA I (setting [1]), at hCA XII (setting [1]) and at hCA II (setting [1]) was above 1000 µM in each case.
In the case of `O=C1c2ccccc2S(=O)(=O)N1c1ccccc1Cl` [Compound 31], the Ki was 640 µM on hCA IX (setting [2]), above 1000 µM on hCA I (setting [2]), above 1000 µM at hCA XII (setting [2]) and 478 µM at hCA II.
For the molecule `O=C(O)c1ccccc1S(=O)(=O)NCc1cn(Cc2ccccc2)nn1` [Compound 49], the Ki at hCA IX (setting [2]) was 1.9 µM; at hCA I (setting [2]) it was above 100 µM; at hCA XII (setting [2]), 4.5 µM; at hCA II (setting [2]), above 100 µM.

Values taken from PMC7580763, “Novel insights on saccharin- and acesulfame-based carbonic anhydrase inhibitors: design, synthesis, modelling investigations and biological activity evaluation” (Journal of Enzyme Inhibition and Medicinal Chemistry, 2020).
